Results as given in ChEMBL document CHEMBL1201862, “PubChem BioAssay data set” (2004).
Several values for one entry are separate records, joined by “and”; a condition that tells them apart may be missing. Identical values can stand only once. Values belong to the molecule of their own block, whether it stands above or below them. Activity calls are given as the source filed them.

What was measured:
A-375 [1] = test: MITF: Counter assay: A375 proliferation Measured in Cell-Based System Using Plate Reader - 2084-03_Inhibitor_Dose_DryPowder_Activity. [Related pubchem assays (depositor defined):AID488944]; format: functional; conditions: Homo sapiens
A-375 [2] = test: proliferation inhibition in MITF-low A375 cells – cell-based, cherry-pick samples, set 2, counter-screen for MITF modulator project, dose response (AID 540335); format: functional; conditions: Homo sapiens
[3] = biological target: T1, Aryl hydrocarbon receptor (Homo sapiens, UniProt P35869); conditions: Potency;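 also: confirmatory quantitative high-throughput screen measuring activation of the AhR signaling pathway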
T1 sequence (P35869 whole entry): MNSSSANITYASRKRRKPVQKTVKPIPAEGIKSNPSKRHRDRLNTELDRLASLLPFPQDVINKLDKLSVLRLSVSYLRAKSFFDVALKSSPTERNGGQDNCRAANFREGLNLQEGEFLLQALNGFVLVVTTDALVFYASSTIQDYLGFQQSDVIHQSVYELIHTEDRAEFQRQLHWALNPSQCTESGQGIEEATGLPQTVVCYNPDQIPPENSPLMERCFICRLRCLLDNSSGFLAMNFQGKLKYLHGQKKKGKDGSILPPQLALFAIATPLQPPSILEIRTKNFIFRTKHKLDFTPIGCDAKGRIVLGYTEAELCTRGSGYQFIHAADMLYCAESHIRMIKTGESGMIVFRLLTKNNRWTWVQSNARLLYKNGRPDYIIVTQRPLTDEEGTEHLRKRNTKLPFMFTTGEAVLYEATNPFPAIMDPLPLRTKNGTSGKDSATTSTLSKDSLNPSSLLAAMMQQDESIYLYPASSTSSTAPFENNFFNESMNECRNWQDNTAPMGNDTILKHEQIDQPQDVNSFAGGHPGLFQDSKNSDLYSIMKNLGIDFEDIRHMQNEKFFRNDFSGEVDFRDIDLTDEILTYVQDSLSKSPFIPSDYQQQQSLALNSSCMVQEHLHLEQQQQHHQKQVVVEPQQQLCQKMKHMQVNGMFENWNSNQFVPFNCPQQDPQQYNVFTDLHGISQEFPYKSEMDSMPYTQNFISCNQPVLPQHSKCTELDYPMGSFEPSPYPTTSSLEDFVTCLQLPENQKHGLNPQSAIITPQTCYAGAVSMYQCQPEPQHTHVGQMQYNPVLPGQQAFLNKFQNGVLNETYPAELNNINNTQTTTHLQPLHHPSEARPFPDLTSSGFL

[4] = biological target: DNA dC->dU-editing enzyme APOBEC-3A (Homo sapiens, UniProt P31941); test: Dose Response confirmation of small molecule APOBEC3A DNA Deaminase Inhibitors via a fluorescence-based single-stranded DNA deaminase assay. [Related pubchem assays (depositor defined):AID493011, AID493024]; format: functional
DNA dC->dU-editing enzyme APOBEC-3A, sequence (P31941 whole entry): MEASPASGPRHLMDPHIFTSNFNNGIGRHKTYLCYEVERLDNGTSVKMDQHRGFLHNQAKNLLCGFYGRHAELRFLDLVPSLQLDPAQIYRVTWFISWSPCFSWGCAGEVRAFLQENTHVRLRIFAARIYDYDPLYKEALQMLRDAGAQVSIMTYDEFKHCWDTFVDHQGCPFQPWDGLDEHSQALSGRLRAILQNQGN

[5] = biological target: DNA dC->dU-editing enzyme APOBEC-3G (Homo sapiens, UniProt Q9HC16); format: functional;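 also: Dose-response counterscreen measuring inhibition of APOBEC3G DNA deaminase activity, run while confirming APOBEC3A inhibitors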
DNA dC->dU-editing enzyme APOBEC-3G, sequence (Q9HC16 whole entry, the tested form may be a part): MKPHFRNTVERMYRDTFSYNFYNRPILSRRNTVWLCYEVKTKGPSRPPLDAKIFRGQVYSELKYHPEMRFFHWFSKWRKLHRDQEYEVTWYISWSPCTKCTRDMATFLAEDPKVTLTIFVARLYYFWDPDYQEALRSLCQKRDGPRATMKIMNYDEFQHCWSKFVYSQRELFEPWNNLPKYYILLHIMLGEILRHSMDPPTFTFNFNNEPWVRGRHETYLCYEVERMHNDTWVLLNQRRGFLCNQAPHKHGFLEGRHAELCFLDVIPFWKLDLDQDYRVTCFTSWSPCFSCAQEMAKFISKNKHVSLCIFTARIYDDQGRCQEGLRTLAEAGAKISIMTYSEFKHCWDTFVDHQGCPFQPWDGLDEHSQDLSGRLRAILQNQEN

[6] = biological target: T2, Carboxy-terminal domain RNA polymerase II polypeptide A small phosphatase 1 (Homo sapiens, UniProt Q9GZU7); test: CTDSP1 inhibitors, concentration-response, biochemical, absorbance readout, ultra-high-throughput screen actives (AID 540297); format: functional
T2 sequence (Q9GZU7 whole entry): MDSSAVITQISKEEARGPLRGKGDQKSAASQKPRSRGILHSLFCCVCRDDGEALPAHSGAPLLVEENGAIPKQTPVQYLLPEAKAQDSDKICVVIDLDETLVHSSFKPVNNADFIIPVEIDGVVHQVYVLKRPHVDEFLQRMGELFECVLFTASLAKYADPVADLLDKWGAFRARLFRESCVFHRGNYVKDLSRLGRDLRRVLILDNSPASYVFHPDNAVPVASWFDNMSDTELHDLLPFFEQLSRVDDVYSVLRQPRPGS

[7] = biological target: Ras and Rab interactor 1/Tyrosine-protein kinase ABL1 (Homo sapiens, UniProt P00519+Q13671); format: functional;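 also: biochemical TR-FRET dose-response test measuring inhibition of binding between Rin1 and Abl proteins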
Ras and Rab interactor 1/Tyrosine-protein kinase ABL1, sequence (P00519 whole entry): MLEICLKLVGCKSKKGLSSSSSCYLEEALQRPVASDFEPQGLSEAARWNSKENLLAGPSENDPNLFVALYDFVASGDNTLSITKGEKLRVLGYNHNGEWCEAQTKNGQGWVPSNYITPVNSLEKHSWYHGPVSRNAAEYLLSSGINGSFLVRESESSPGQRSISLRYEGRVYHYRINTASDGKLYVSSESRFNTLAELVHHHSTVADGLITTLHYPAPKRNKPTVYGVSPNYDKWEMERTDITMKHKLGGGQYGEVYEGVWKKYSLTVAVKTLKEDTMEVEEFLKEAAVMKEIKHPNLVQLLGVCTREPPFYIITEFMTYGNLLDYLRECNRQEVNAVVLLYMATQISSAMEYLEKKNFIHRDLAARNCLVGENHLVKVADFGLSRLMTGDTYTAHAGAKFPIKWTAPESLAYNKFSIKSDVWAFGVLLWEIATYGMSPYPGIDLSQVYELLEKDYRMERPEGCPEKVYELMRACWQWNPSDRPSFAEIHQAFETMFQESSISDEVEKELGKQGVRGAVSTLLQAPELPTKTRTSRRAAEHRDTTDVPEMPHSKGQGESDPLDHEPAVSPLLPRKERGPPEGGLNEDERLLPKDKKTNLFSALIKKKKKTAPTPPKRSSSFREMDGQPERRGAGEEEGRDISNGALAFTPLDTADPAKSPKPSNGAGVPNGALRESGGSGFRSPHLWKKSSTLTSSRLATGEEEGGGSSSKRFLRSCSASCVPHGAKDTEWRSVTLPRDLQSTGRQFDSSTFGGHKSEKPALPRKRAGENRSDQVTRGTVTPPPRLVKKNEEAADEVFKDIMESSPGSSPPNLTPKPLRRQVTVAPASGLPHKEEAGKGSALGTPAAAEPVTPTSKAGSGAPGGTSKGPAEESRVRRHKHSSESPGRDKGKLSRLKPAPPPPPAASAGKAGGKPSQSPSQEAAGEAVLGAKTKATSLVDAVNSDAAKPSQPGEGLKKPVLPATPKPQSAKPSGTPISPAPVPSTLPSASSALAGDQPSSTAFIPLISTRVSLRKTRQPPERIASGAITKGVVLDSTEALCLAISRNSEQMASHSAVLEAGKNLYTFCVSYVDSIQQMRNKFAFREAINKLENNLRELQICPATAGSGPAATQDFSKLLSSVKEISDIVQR
Ras and Rab interactor 1/Tyrosine-protein kinase ABL1, sequence (Q13671 whole entry): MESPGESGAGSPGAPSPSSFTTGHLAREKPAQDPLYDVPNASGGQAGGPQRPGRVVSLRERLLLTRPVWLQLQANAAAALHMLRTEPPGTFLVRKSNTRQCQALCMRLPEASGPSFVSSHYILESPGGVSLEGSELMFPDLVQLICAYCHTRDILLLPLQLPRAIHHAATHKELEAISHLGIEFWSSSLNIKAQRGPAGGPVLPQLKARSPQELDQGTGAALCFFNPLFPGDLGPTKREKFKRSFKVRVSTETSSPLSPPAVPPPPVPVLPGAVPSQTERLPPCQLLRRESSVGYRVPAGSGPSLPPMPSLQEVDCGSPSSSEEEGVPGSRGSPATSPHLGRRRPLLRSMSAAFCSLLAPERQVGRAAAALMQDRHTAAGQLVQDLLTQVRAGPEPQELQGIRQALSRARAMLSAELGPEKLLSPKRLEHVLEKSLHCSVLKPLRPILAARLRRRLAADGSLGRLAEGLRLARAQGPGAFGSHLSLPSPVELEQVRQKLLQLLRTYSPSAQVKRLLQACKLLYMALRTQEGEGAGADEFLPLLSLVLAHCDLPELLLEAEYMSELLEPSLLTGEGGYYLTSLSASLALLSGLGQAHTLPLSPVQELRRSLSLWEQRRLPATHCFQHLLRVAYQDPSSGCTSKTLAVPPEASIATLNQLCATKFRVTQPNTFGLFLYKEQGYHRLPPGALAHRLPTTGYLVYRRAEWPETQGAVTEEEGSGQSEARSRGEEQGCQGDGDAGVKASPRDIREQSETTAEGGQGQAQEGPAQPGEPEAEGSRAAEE

[8] = biological target: T3, Ubiquitin-conjugating enzyme E2 N (Homo sapiens, UniProt P61088); format: functional;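 also: Dose-response confirmation in a TR-FRET assay detecting UBC13-driven polyubiquitin chain formation, inhibition measured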
T3 sequence (P61088 whole entry): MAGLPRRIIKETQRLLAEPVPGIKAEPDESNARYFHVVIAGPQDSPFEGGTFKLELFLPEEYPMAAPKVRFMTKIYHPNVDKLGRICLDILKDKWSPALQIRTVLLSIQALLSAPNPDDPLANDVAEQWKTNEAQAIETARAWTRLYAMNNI

HEK293 = test: EBV LMP1 TES2 canonical NF-kB signalling blockers – cell-based, HEK293, luciferase, cherry-pick, dose response (AID 588343); format: functional; conditions: Homo sapiens
[9] = NIH-3T3 fibroblast cytotoxicity, dose response, cytotoxicity control, cell-based, fluorescence, Alamar Blue, secondary assay (AID 2327); format: functional;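 also: NIH-3T3 mouse fibroblasts cultured with fluconazole at 8 µg/mL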
[10] = fluconazole-exposed Candida albicans growth modulators – fluorescence, retest, confirmation (AID 2467); format: functional, cell-based
INS1 = test: INS-1E survival protection against cytokine death – cell-based, luminescence, retest, dose response (AID 449756); format: functional; conditions: Rattus norvegicus;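 also: cell death triggered by IL-1 beta plus TNF-alpha plus IFN-gamma mixture; protective hits raise ATP signal compared with cytokine alone wells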
Protein Wnt-3a = Protein Wnt-3a (Mus musculus, UniProt P27467); test: antagonism of Wnt3a pathway luciferase reporter – Wnt-LIGHT cells, luminescence, selectivity assay for Gli-SUFU antagonist project, dose response (AID 651570); format: functional; conditions: read-out: IC50_Mean;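 also: Wnt-LIGHT reporter cells stimulated with conditioned medium from Wnt3a-producing cells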
Protein Wnt-3a, sequence (P27467 whole entry): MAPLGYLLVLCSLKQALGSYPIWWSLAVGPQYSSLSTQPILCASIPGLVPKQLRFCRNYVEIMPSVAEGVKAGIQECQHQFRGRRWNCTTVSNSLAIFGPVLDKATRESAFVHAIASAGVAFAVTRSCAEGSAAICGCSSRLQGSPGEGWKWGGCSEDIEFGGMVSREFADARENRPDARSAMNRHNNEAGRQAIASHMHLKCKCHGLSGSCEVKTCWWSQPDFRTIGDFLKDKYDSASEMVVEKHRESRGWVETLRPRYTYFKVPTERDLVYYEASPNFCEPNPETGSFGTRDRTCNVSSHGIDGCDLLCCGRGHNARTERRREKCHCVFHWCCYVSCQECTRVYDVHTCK

[11] = viability of uninfected HEp-2 cells – cell-based, HTS, cytotoxicity control for RSV inhibitor project, dose response (AID 2410); format: functional; conditions: human respiratory syncytial virus
[12] = biological target: T4, Apoptotic protease-activating factor 1 (Homo sapiens, UniProt O14727); format: functional
T4 sequence (O14727 whole entry): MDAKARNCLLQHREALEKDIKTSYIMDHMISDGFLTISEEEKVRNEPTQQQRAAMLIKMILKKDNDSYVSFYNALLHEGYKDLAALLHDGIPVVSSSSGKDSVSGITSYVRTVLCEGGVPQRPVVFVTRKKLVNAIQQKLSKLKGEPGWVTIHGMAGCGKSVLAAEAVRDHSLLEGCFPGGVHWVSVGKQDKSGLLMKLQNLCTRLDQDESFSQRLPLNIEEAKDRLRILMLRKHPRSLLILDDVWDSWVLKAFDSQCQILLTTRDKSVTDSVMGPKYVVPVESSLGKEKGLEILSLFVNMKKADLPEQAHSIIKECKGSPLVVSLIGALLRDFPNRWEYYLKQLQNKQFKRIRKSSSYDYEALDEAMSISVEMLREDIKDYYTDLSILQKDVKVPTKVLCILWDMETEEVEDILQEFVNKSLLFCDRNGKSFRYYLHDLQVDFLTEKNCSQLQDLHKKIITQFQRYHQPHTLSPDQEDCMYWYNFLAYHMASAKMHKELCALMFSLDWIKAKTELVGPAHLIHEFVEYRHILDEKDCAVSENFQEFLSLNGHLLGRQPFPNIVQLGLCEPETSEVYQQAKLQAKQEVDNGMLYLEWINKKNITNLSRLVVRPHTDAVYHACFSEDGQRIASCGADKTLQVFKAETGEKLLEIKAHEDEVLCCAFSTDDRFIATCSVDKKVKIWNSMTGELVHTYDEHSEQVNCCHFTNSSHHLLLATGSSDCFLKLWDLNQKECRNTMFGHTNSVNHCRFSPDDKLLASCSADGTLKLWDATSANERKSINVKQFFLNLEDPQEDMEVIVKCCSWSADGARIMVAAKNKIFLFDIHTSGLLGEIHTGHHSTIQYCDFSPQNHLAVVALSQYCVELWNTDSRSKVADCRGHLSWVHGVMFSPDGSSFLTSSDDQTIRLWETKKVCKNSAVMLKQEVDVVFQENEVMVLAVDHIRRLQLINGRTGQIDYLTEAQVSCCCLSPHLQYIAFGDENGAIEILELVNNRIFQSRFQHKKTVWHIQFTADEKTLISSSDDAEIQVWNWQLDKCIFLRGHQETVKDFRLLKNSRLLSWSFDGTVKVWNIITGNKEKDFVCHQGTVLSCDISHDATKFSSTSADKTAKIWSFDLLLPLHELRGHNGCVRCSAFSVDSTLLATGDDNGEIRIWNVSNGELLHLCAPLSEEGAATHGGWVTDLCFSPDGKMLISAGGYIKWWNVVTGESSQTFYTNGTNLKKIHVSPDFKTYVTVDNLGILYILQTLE

[13] = biological target: T5, DNA repair and recombination protein RAD54-like (Homo sapiens, UniProt Q92698); test: RAD54 Holliday junction migration blockers – biochemical, fluorescence, cherry-picked samples, dose series, confirmation (AID 651657); format: functional
T5 sequence (Q92698 whole entry): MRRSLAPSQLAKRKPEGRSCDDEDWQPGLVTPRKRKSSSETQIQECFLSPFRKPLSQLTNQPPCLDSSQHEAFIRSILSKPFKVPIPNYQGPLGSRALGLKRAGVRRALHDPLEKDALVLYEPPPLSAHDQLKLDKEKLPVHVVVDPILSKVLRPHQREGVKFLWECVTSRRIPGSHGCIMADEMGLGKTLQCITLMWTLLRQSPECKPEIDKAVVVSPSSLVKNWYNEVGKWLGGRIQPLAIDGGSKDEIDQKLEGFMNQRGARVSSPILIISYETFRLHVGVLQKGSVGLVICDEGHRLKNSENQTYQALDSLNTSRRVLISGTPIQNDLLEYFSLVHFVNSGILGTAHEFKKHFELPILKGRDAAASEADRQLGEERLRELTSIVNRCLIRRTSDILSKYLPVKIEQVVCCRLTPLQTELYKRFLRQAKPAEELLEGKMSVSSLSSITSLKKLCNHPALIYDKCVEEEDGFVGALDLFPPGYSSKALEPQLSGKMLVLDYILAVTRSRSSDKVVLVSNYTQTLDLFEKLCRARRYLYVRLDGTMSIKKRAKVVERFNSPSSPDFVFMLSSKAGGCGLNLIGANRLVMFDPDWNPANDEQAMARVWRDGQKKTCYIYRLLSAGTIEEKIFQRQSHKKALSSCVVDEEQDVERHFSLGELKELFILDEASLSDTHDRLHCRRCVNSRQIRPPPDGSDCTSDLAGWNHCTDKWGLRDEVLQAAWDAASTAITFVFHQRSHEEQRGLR

P388/ADR = test: cells; format: functional; conditions: Mus musculus
SN12K1 = test: cells; format: functional; conditions: Homo sapiens
P388 = test: cells; format: functional; conditions: Mus musculus
[14] = activation of miR-122 Renilla sensor silencing – cell-based, Huh7 psiCHECK-miR122, Renilla luciferase, cherry-picked, dose response (AID 651956); format: functional;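 also: huh7 hepatoma cells stably carrying a psiCHECK-2 miR-122 sensor plasmid; renilla luciferase signal reporting endogenous miR-122 activity after 48 h compound exposure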
Cytochrome P450 3A4 = Cytochrome P450 3A4 (Homo sapiens, UniProt P08684); conditions: Potency;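 also: confirmatory qHTS run detecting inhibitors and substrates of CYP3A4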
Cytochrome P450 3A4, sequence (P08684 whole entry): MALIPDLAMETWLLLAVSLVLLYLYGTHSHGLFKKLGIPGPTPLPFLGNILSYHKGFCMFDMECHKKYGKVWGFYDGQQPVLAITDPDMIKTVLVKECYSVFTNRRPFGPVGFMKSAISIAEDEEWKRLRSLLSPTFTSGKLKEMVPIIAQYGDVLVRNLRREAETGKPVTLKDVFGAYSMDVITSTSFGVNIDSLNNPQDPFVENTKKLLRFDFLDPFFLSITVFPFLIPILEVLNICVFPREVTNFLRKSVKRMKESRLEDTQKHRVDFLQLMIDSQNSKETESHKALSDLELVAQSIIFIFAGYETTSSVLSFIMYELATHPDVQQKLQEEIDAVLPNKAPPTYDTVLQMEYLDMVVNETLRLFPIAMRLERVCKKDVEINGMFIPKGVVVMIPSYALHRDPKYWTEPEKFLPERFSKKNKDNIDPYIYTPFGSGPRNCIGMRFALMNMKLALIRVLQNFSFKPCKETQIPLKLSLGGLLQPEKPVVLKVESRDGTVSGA

SMILES: Clc1ccc(-c2noc(CN3CCOCC3)n2)cc1
AC50 (A-375 [1]): > 35 µM (active)
AC50 (A-375 [2]): > 35 µM (active)

AC50 [3]: 56.2 µM (inconclusive)
SMILES: Cc1cccc2sc(N)nc12

SMILES: CCN(CC)P(c1n(C)cc[n+]1C)N(CC)CC
IC50 [4]: 2.47 µM (active)
IC50 [5]: 3.2 µM (active)
IC50 [6]: 3.52 µM (active)

IC50 [7]: 25.7 µM (inactive)
SMILES: O=C(CC1SCCNC1=O)Nc1ccc(F)c(Cl)c1 (stereo not given)

SMILES: COc1ccc(C(=O)Nn2c(SCC(=O)c3ccc(Cl)cc3)nc3ccccc3c2=O)cc1
IC50 [8]: > 20 µM (inactive)
AC50 (HEK293): 8.36 µM (active)

SMILES: Cc1csc2ncnc(NCCc3ccccn3)c12
EC50 [9]: > 160 µM (inactive)
EC50 [10]: 1.92 µM (active)
AC50 (INS1): 4.39 µM (active)
IC50 (Protein Wnt-3a): 0.887 µM (active)

IC50 [12]: 50.7 µM (active)
SMILES: CC(=O)c1ccc(N2CCN(S(=O)(=O)c3ccc4c5c3CC(=O)N5CC(C)S4)CC2)cc1 (stereo not given)
CC50 [11]: 17 µM (active)

SMILES: O=C(CNC(=O)c1ccc(Br)cc1)c1ccccc1
AC50 (A-375 [1]): > 35 µM (active)
AC50 (A-375 [2]): > 35 µM (active)

IC50 [6]: 6.53 µM (active)
SMILES: CCOC(=O)C[n+]1c2n(c3ccccc31)CC(O)CS2 (stereo not given)

IC50 [7]: 25.3 µM (inactive)
SMILES: CCOC(=O)c1ccc(NC(=O)COc2ccccc2CNCCO)cc1

IC50 [7]: 0.659 µM (active)
SMILES: COc1cc(C(=O)Nc2ccc(O)cc2C(=O)O)ccc1OC(C)=O

AC50 [13]: 37.3 µM (active)
SMILES: Nc1c(C(=O)NCCN2CCOCC2)c2nc3ccccc3nc2n1-c1ccc2c(c1)OCO2

SMILES: COc1nc(NC2CCCCC2)nc(NC(C)(C)C)n1
AC50 (A-375 [1]): > 35 µM (active)
AC50 (A-375 [2]): > 35 µM (active)

SMILES: CCOC(=O)/C(=C\c1ccccc1)C(=O)CCN1CCOCC1
GI50 (P388/ADR): 1.13 µM (inactive)
GI50 (SN12K1): 5.53 µM (inactive)
GI50 (P388): 0.627 µM (active)

SMILES: O=C(/C=C\c1ccc(/C=C/C(=O)Nc2cccc(C3=NCCCN3)c2)cc1)Nc1cccc(C2=NCCCN2)c1
GI50 (P388/ADR): 79.3 µM (inactive)
GI50 (SN12K1): > 100 µM (inactive)
GI50 (P388): 0.303 µM (active)

SMILES: COC(=O)[C@]12CC=C3O[C@@H]4OC5(CCCCC5)O[C@@H]4[C@H]3C1C(=O)C=CC2=O (stereo not given in full)
GI50 (P388/ADR): 2.96 µM (inactive)
GI50 (SN12K1): 16 µM (inactive)
GI50 (P388): 2.81 µM (inactive)

SMILES: CN1C(=O)c2cc(NC(=O)Cc3ccccc3)ccc2OC[C@@H]2O[C@@H](CC(=O)NCc3ccc(Cl)cc3)CC[C@H]21
AC50 [14]: 41.4 µM (active)

SMILES: COc1cc(C2c3cc4c(cc3[C@@H](Nc3ccc5c(c3)OCCO5)C3COC(=O)[C@H]23)OCO4)cc(OC)c1O (stereo not given in full)
GI50 (P388/ADR): 0.229 µM (active)
GI50 (SN12K1): 0.274 µM (active)
GI50 (P388): < 0.01 µM (active)

AC50 [13]: 92.4 µM (active)
SMILES: Nc1ccc(-c2nc3c(ccc4ccccc43)[nH]2)cc1

AC50 (Cytochrome P450 3A4): 20 µM (inconclusive)
SMILES: Nc1cc(Cl)c(N)c(Cl)c1
AC50 [3]: 31.6 µM (inconclusive) and 25.1 µM (inconclusive)

SMILES: Cc1ccc(N=C=O)cc1N=C=O [TOLUENE DIISOCYANATE]
AC50 [3]: 50.1 µM (inconclusive)
